For data set [1] the following is noted: Crystal; DTA.
Data set [2] can be described thus: Molar enthalpy of transition or fusion. The following applies: Crystal; DSC.

± gives the expanded uncertainty stated by the source.

Consider `CCOC(=O)C1=NN(c2ccc(Cl)cc2Cl)[C@](C)(C(=O)OCC)C1`, for which the Normal melting temperature in data set [1] was 30.5 ± 0.7 °C. For the same compound, the “Molar enthalpy of transition or fusion” value in data set [2] was 5.88 ± 0.263 kcal/mol.

Turning to `CCOC(=O)C1=NN(c2ccc(Cl)cc2Cl)C(C)(C(=O)OCC)C1` (centres undefined), in data set [1], the Normal melting temperature is 49.2 ± 0.7 °C. For the same compound, the “Molar enthalpy of transition or fusion” value in data set [2] came to 4.4 ± 0.239 kcal/mol.

These data come from the NIST ThermoML archive (doi:10.1021/acs.jced.7b00819).
